The values below come from US11566017B2, “Dihydroquinazolinone compound or pharmacologically acceptable salt, and cell growth inhibitor” (RIKEN, priority 2017, dated 2023).

One assay addresses T1, tankyrase 2 (TNKS2) (Homo sapiens, UniProt Q9H2K2).
T1 construct: tankyrase 2 (613-1,116aa, ANK5+SAM+PARP); made in house; host or cells: cell-free protein expression system
In words: Tankyrase inhibitory activity test (ELISA, auto-poly(ADP-ribosyl)ation), tankyrase 2. It counts as biochemical. Particulars: Flag tagged tankyrase 2 (613-1,116aa, ANK5+SAM+PARP); read-out: TNKS2 (inhibitory activity against tankyrase 2, IC50). The method, boiled down:
(§1)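 Cell-free-expressed Flag-tagged TNKS1 (1,024-1,327aa, SAM+PARP) or TNKS2 (613-1,116aa, ANK5+SAM+PARP) was captured on anti-FLAG plates and pre-incubated 10 min at RT with compound (pH 8.0, MgCl2, DTT). Auto-PARylation was started with NAD solution (225 μM NAD, 25 μM biotin-NAD), 45 min at 30 °C. Detection by HRP-streptavidin chemiluminescence; IC50 from residual activity.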
In general terms: An ELISA detects its analyte on a solid surface through an enzyme-linked reagent.

Another assay deals with T2, tankyrase 1 (TNKS1) (Homo sapiens, UniProt O95271).
T2 construct: tankyrase 1 (1,024-1,327aa, SAM+PARP); made in house; host or cells: cell-free protein expression system
In words: Tankyrase inhibitory activity test (ELISA, auto-poly(ADP-ribosyl)ation), tankyrase 1. It counts as biochemical. The settings on record: Flag tagged tankyrase 1 (1,024-1,327aa, SAM+PARP); read-out: TNKS1 (inhibitory activity against tankyrase 1, IC50). The method, boiled down: as §1

Assay [1] relates to human colorectal cancer cell line COLO-320DM. In words: Cell proliferation inhibitory activity test (Celltiter-Glo). It is filed as cell-based. The settings on record: COLO-320DM cells, 96 hours.

T2 sequence (O95271 1024-1327): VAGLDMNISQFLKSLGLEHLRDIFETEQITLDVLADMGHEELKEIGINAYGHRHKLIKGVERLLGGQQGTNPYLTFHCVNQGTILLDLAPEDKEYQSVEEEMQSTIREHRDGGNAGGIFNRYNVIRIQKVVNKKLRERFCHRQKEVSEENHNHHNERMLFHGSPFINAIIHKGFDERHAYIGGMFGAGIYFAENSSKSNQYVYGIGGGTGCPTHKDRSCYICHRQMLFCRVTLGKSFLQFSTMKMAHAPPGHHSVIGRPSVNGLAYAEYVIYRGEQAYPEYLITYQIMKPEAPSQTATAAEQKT

Usually IC50 stands for the midpoint of a concentration-inhibition curve. For orientation: GI50 means the concentration giving 50% growth inhibition. In the case of `COc1ccc(-c2n[nH]nc2C2NC(=O)c3ccccc3N2)cc1` (stereo not drawn) [Example 59, 2-[5-(4-Methoxyphenyl)-2H-1,2,3-triazol-4-yl]-2,3-dihydro-1H-quinazolin-4-one], the IC50 on tankyrase 2 (TNKS2) was below 5 nM; at tankyrase 1 (TNKS1), 20 to 50 nM. Also, the concentration for 50% growth inhibition (GI50) in assay [1] fell in the range of 1000 to 10000 nM.
Consider `CN1c2ccccc2C(=O)NC1c1n[nH]nc1-c1ccc(Br)cc1` (stereo not drawn) [Example 60, 2-[4-(4-Bromophenyl)-2H-1,2,3-triazol-5-yl]-1-methyl-2,3-dihydroquinazolin-4-one], for which the IC50 on tankyrase 2 (TNKS2) and at tankyrase 1 (TNKS1) was 5 to 20 nM in each case. In addition, the concentration for 50% growth inhibition (GI50) in assay [1] lay in the range of 1000 to 10000 nM.
As for `CN1CCN(c2ccc(-c3cccc(-c4n[nH]nc4C4NC(=O)c5ccccc5N4C)c3)cc2)CC1` (stereo not drawn) [Example 61, 1-Methyl-2-[5-[3-[4-(4-methylpiperazin-1-yl)phenyl]phenyl]-2H-1,2,3-triazol-4-yl]-2,3-dihydroquinazolin-4-one], the IC50 on tankyrase 2 (TNKS2) and on tankyrase 1 (TNKS1) was 5 to 20 nM each time. Besides, in assay [1], the 50% growth inhibitory concentration (GI50) is at least 10000 nM.
As for `CN1c2ccccc2C(=O)NC1c1n[nH]nc1-c1cccc(-c2ccc(N3CCOCC3)cc2)c1` (stereo not drawn) [Example 62, 1-Methyl-2-[4-[3-(4-morpholin-4-ylphenyl)phenyl]-2H-1,2,3-triazol-5-yl]-2,3-dihydroquinazolin-4-one], the half-maximal inhibitory concentration (IC50) at tankyrase 2 (TNKS2) and on tankyrase 1 (TNKS1) was 5 to 20 nM each time. Besides, in assay [1], the GI50 is at least 10000 nM.
Regarding `CCOc1ccc(-c2n[nH]nc2C2NC(=O)c3ccccc3N2C)cc1` (stereo not drawn) [Example 63, 2-[5-(4-Ethoxyphenyl)-2H-1,2,3-triazol-4-yl]-1-methyl-2,3-dihydroquinazolin-4-one], the 50% inhibitory concentration (IC50) at tankyrase 2 (TNKS2) and on tankyrase 1 (TNKS1) was 5 to 20 nM each time. Moreover, the concentration for 50% growth inhibition (GI50) in assay [1] lay within 1000 to 10000 nM.
`CN1c2ccccc2C(=O)NC1c1n[nH]nc1-c1ccc(OCC(F)(F)F)cc1` (stereo not drawn) [Example 64, 1-Methyl-2-[4-[4-(2,2,2-trifluoroethoxy)phenyl]-2H-1,2,3-triazol-5-yl]-2,3-dihydroquinazolin-4-one]: the IC50 on tankyrase 2 (TNKS2) fell in the range of 5 to 20 nM; at tankyrase 1 (TNKS1), 20 to 50 nM. For the same compound, the GI50 in assay [1] is at least 10000 nM.
In the same order, the values of `Cc1cccc2c1NC(c1n[nH]nc1-c1ccc(Br)cc1)NC2=O` (stereo not drawn) [Example 66, 2-[4-(4-Bromophenyl)-2H-1,2,3-triazol-5-yl]-8-methyl-2,3-dihydro-1H-quinazolin-4-one] are below 5 nM, 5 to 20 nM and at least 10000 nM.
As to `COc1ccc(-c2n[nH]nc2C2NC(=O)c3cccc(O)c3N2)cc1` (stereo not drawn) [Example 67, 8-Hydroxy-2-[5-(4-methoxyphenyl)-2H-1,2,3-triazol-4-yl]-2,3-dihydro-1H-quinazolin-4-one], the IC50 on tankyrase 2 (TNKS2) and at tankyrase 1 (TNKS1) was 5 to 20 nM throughout. In assay [1], the GI50 was at least 10000 nM.
As for `COc1ccc(-c2n[nH]nc2C2NC(=O)c3cccc4c3N2CCO4)cc1` (stereo not drawn) [Example 68, 2-[5-(4-Methoxyphenyl)-2H-1,2,3-triazol-4-yl]-10-oxa-1,3-diazatricyclo[7.3.1.0^5,13]trideca-5,7,9(13)-trien-4-one], the IC50 on tankyrase 2 (TNKS2) and on tankyrase 1 (TNKS1) was 5 to 20 nM in each case. Also, in assay [1], the GI50 was in the range of 1000 to 10000 nM.
Regarding `COc1ccc(-c2n[nH]nc2C2NC(=O)c3cccc(C(F)(F)F)c3N2)cc1` (stereo not drawn) [Example 71, 2-[5-(4-Methoxyphenyl)-2H-1,2,3-triazol-4-yl]-8-(trifluoromethyl)-2,3-dihydro-1H-quinazolin-4-one], the concentration for half-maximal inhibition (IC50) on tankyrase 2 (TNKS2) and on tankyrase 1 (TNKS1) was 20 to 50 nM throughout. Also, the GI50 in assay [1] lay in the range of 1000 to 10000 nM.
As to `Cc1cccc2c1NC(c1n[nH]nc1-c1ccc(OCC(F)(F)F)cc1)NC2=O` (stereo not drawn) [Example 72, 8-Methyl-2-[4-[4-(2,2,2-trifluoroethoxy)phenyl]-2H-1,2,3-triazol-5-yl]-2,3-dihydro-1H-quinazolin-4-one], the concentration for half-maximal inhibition (IC50) at tankyrase 2 (TNKS2) and at tankyrase 1 (TNKS1) was 5 to 20 nM each time. Also, the 50% growth inhibitory concentration (GI50) in assay [1] fell in the range of 1000 to 10000 nM.
